In PMC11481179, “Development and Application of Reversible and Irreversible Covalent Probes for Human and Mouse Cathepsin‐K Activity Detection, Revealing Nuclear Activity” (Advanced Science, 2024):

Target: T1, CTSK (Homo sapiens, UniProt P43235)
T1 sequence (P43235 115-329): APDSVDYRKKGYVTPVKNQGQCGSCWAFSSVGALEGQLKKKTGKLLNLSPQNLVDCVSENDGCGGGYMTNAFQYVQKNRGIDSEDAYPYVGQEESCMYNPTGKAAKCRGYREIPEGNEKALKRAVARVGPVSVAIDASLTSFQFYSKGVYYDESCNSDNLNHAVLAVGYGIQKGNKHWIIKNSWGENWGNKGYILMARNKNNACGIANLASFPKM
Assay: Recombinant cathepsin labeling by ABPs, in-gel fluorescence
Format: binding
Details: ABP 5 µM, 1 h, 37 °C, pH 5.5, CTSK 0.5–280 ng
Method: The ABPs were tested for binding to recombinant CTSK compared to the closely related CTSB, CTSL, and CTSS, which are highly abundant and active in most biological samples. Using the in‐gel fluorescent analysis that detects the stable enzyme‐probe complex, active CTSK was labeled with each of the four probes, and significant selectivity was found in three probes GD32, GD37, and GD42 (Figure 1a). […] However, the minimum amount of active CTSK the remaining probes detected was much higher, ranging from 8 to 70 ngs, (Figure 1b).
Figure 1 In vitro evaluation of CTSK targeted compounds. a) Labeling of recombinant cathepsins by ABPs. Recombinant cathepsins were treated with increasing concentrations of ABPs for 1 h. Samples were separated by SDS‐PAGE and scanned for fluorescence by a Typhoon scanner at 635/670 nm. All probes show dose‐dependent binding to the CTSK, and have lower affinity to CTSS except GD36, b) CTSK [0.5–280 ng] was labeled with the indicated ABPs [5 µM]. Incubations were performed for 1 h at 37 °C, at pH 5.5. Samples were analyzed as described in (a). c) Recombinant cathepsins B, K, L, and S [0.5 µM] were first treated with the indicated concentrations of the inhibitor GD30 or vehicle for 1 h followed by incubation with a pan cathepsin probe GB123 [1 µM] for 1 h. Samples were analyzed as described in (a). d) Quantitative analysis of CTSK inhibition by GD30 presented in (d), data represent mean values ± standard error, n = 3. e) IC50 plot of GD30 inhibition of CTSK activity. […]
emission wavelengths of 370 and 460 nm, respectively. Cathepsin concentrations in the assay were 0.4 nM (CTSK) or 5 nM (CTSS, CTSB, and CTSL). […] For irreversible inhibitors, reaction data were fitted to the one-phase association formula in GraphPad Prism 9 software: Y=Y0 + (Plateau-Y0)*(1-exp(-K*X)) where in this case Y0 and Y represent fluorescence signal at times 0 and t, respectively, K represent the observed reaction rate kobs and X the inhibitor concentration. […]
reaction was stopped and samples were analyzed as described above. […]

## C#CCNC(=O)[C@H](CC(C)C)N[C@@H](c1ccc(-c2ccc(S(=O)(=O)CCNC(=O)CCCCC[N+]3=C(/C=C/C=C/C=C4/N(C)c5ccc(S(=O)(=O)O)cc5C4(C)C)C(C)(C)c4cc(S(=O)(=O)O)ccc43)cc2)cc1)C(F)(F)F [GD32]
  minimum amount of active CTSK detected: 0.5 ng
